Source: patent US11225484B2, “Substituted octahydropyrrolo[3,4-b]pyrroles as antagonists of the muscarinic acetylcholine receptor M4” (Vanderbilt University, priority 2017, dated 2022)

Columns and labels:
Rat M4 = target: T1, Rat M4 (Rattus norvegicus, UniProt P08485); test: mAChR M4 cell-based functional assay (calcium flux, rat M4/Gqi5/CHO cells); details: for remaining activity at 30 µM: CHO, % ACh maximum at 30 μM, read-out: Emin (%) rat M4; for IC50: antagonist mode, decrease of the response to an EC80 concentration of acetylcholine, CHO-K1 cells with Gqi5
T1 construct: expressed in transfected cells; host or cells: CHO-K1 (ATCC), co-transfected with chimeric G protein Gqi5
T1 sequence (P08485 1-478): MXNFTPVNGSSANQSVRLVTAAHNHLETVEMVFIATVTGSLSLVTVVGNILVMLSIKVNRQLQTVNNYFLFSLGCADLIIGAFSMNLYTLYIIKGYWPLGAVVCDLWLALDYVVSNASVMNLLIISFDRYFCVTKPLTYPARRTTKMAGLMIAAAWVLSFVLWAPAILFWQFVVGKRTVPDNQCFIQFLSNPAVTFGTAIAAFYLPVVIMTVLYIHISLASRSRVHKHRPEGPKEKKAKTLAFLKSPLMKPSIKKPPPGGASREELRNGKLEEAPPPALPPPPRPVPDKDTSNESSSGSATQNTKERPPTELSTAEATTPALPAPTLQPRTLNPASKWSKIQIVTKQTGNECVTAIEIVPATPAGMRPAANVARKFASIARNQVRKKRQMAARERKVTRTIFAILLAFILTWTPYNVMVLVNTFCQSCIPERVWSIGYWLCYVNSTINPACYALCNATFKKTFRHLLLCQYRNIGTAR
Procedure: (§1) Human or rat M4 cDNA, along with the chimeric G protein Gqi5, were transfected into Chinese hamster ovary (CHO-K1) cells purchased from the American Type Culture Collection using Lipofectamine2000. M4/Gqi5/CHO cells were grown in Ham's F-12 medium containing 10% heat-inactivated fetal bovine serum (FBS), 20 mM HEPES, 500 μg/mL G418 sulfate, and 200 μg/mL Hygromycin B.
(§2) For high throughput measurement of agonist-evoked increases in intracellular calcium, CHO-K1 cells stably expressing muscarinic receptors were plated in growth medium lacking G418 and hygromycin at 15,000 cells/20 μL/well in Greiner 384-well black-walled, tissue culture (TC)-treated, clear-bottom plates (VWR). Cells were incubated overnight at 37° C. and 5% CO2. The next day, cells were washed using an ELX 405 (BioTek) with assay buffer; the final volume was then aspirated to 20 μL. Next, 20 μL of a 2.3 μM stock of Fluo-4/acetoxymethyl ester (Invitrogen, Carlsbad, Calif.), prepared as a 2.3 mM stock in DMSO and mixed in a 1:1 ratio with 10% (w/v) Pluronic F-127 and diluted in assay buffer, was added to the wells and the cell plates were incubated for 50 min at 37° C. and 5% CO2. Dye was removed by washing with the ELX 405 and the final volume was aspirated to 20 μL. Compound master plates were formatted in a 10 point concentration-response curve (CRC) format (1:3 dilutions) in 100% DMSO with a starting concentration of 10 or 1 mM using a BRAVO liquid handler (Agilent). Test compound CRCs were then transferred to daughter plates (240 nL) using the Echo acoustic plate reformatter (Labcyte, Sunnyvale, Calif.) and then diluted into assay buffer (40 μL) to a 2× stock using a Thermo Fisher Combi (Thermo Fisher Scientific, Waltham, Mass.).
(§3) Calcium flux was measured using the Functional Drug Screening System (FDSS) 6000 or 7000 (Hamamatsu Corporation, Tokyo, Japan) as an increase in the fluorescent static ratio. Compounds were applied to cells (20 μL, 2×) using the automated system of the FDSS at 2 seconds into the protocol and the data were collected at 1 Hz. At 143 s, 10 μL of an EC20 concentration of the muscarinic receptor agonist acetylcholine was added (5×), followed by the addition of 12 μL of an EC80 concentration of acetylcholine at the 268 s time point (5×). Agonist activity was analyzed as a concentration-dependent increase in calcium mobilization upon compound addition. Positive allosteric modulator activity was analyzed as a concentration-dependent increase in the EC20 acetylcholine response. Antagonist activity was analyzed as a concentration-dependent decrease in the EC80 acetylcholine response for the purposes of the tables herein, an IC50 (inhibitory concentration 50) was calculated as a concentration-dependent decrease of the response elicited by an EC80 concentration of acetylcholine, Concentration-response curves were generated using a four-parameter logistical equation in XLFit curve fitting software (IDBS, Bridgewater, N.J.) for Excel (Microsoft, Redmond, Wash.) or Prism (GraphPad Software, Inc., San Diego, Calif.) or the Dotmatics software platform (Dotmatics, Bishop's Stortford, UK).
(§4) Compounds were synthesized as described above. Activity (IC50 and Emin) was determined in the mAChR M4 cell-based functional assay as described above and the data are shown in Table 2. The compound number corresponds to the compound numbers used in Examples 1-3.

Human M4 = target: T2, Human M4 (Homo sapiens, UniProt P08173); test: mAChR M4 cell-based functional assay (calcium flux, human M4/Gqi5/CHO cells); details: for remaining activity at 30 µM: CHO, % ACh maximum at 30 μM, read-out: Emin (%) human M4; for IC50: antagonist mode, decrease of the response to an EC80 concentration of acetylcholine, CHO-K1 cells with Gqi5
T2 construct: expressed in transfected cells; host or cells: CHO-K1 (ATCC), co-transfected with chimeric G protein Gqi5
T2 sequence (P08173 1-479): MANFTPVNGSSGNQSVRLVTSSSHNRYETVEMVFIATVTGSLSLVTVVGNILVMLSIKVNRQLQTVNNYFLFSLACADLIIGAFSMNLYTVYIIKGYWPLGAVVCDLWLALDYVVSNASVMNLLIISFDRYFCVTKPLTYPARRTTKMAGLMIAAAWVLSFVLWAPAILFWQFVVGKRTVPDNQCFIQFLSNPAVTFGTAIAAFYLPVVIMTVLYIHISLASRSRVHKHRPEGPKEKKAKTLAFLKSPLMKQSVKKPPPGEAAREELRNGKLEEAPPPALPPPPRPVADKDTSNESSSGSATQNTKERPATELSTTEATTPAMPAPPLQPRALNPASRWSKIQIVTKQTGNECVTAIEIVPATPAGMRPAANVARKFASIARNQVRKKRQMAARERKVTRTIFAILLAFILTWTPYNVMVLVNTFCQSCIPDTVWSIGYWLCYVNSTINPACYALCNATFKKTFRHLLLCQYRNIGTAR
Procedure: as §1, §2, §3, §4

| remaining activity at 30 µM (Rat M4) | IC50 (Rat M4) | remaining activity at 30 µM (Human M4) | IC50 (Human M4) | Compound |
| --- | --- | --- | --- | --- |
| 4.61% | 0.509 µM | – | – | Cc1cnn(C)c1-c1ccc(N2CCC3CN(CC45CC6CC(CC(C6)C4)C5)CC32)nn1 (stereo not shown) [Compound 1, 5-(Adamantan-1-ylmethyl)-1-(6-(1,4-dimethyl-1H-pyrazol-5-y)pyridazin-3-yl)octahydropyrrolo[3,4-b]pyrrole] |
| 6.85% | 1.5 µM | 3.83% | 0.647 µM | Cc1cnn(C)c1-c1ccc(N2CCC3CN(CCCC(C)(C)C)CC32)nn1 (stereo not shown) [Compound 2, 1-(6-(1,4-Dimethyl-1H-pyrazol-5-yl)pyridazin-3-yl)-5-(4,4-dimethylpentyl)octahydropyrrolo[3,4-b]pyrrole] |
| 16.8% | 3.57 µM | 4.28% | 0.8 µM | Cc1cnn(C)c1-c1ccc(N2CCC3CN(CC4CC5C=CC4C5)CC32)nn1 (stereo not shown) [Compound 3, 5-(bicyclo[2.2.1]hept-5-en-2-ylmethyl)-1-(6-(1,4-dimethyl-1H-pyrazol-5-yl)pyridazin-3-yl)octahydropyrrolo[3,4-b]pyrrole] |
| 63.1% | > 10 µM | 26.2% | > 10 µM | Cc1cccnc1CN1CC2CCN(c3ccc(-c4c(C)cnn4C)nn3)C2C1 (stereo not shown) [Compound 4, 1-(6-(1,4-dimethyl-1H-pyrazol-5-yl)pyridazin-3-yl)-5-((3-methylpyridin-2-yl)methyl)octahydropyrrolo[3,4-b]pyrrole] |
| – | – | 46.7% | > 10 µM | Cc1cnn(C)c1-c1ccc(N2CCC3CN(Cc4ccccc4)CC32)nn1 (stereo not shown) [Compound 5, 5-benzyl-1-(6-(1,4-dimethyl-1H-pyrazol-5-yl)pyridazin-3-yl)octahydropyrrolo[3,4-b]pyrrole] |
| 30.9% | > 10 µM | 7.19% | 1.98 µM | Cc1cnn(C)c1-c1ccc(N2CCC3CN(CCc4ccccc4)CC32)nn1 (stereo not shown) [Compound 6, 1-(6-(1,4-ditnethyl-1H-pyrazol-5-yl)pyridazin-3-yl)-5-phenethyloctahydropyrrolo[3,4-b]pyrrole] |
| 26.2% | > 10 µM | 6.12% | 1.43 µM | Cc1cnn(C)c1-c1ccc(N2CCC3CN(CCCc4ccccc4)CC32)nn1 (stereo not shown) [Compound 7, 1-(6-(1,4-dimethyl-1H-pyrazol-5-yl)pyridazin-3-yl)-5-(3-phenylpropyl)octahydropyrrolo[3,4-b]pyrrole] |
| 32.4% | > 10 µM | 6.61% | 3.38 µM | Cc1cnn(C)c1-c1ccc(N2CCC3CN(CC4CCN(Cc5ccccc5)CC4)CC32)nn1 (stereo not shown) [Compound 8, 5-((1-benzylpiperidin-4-yl)methyl)-1-(6-(1,4-dimethyl-1H-pyrazol-5-yl)pyridazin-3-yl)octahydropyrrolo[3,4-b]pyrrole] |
| 6.32% | 2.33 µM | 4.33% | 0.498 µM | Cc1cnn(C)c1-c1ccc(N2CCC3CN(CCC(C)c4ccccc4)CC32)nn1 (stereo not shown) [Compound 9, 1-(6-(1,4-dimethyl-1H-pyrazol-5-yl)pyridazin-3-yl)-5-(3-phenylbutyl)octahydropyrrolo[3,4-b]pyrrole] |
| 4.82% | 1.89 µM | 4.12% | 0.453 µM | Cc1cnn(C)c1-c1ccc(N2CCC3CN(CC4C5CC6CC(C5)CC4C6)CC32)nn1 (stereo not shown) [Compound 10, 5-(adamantan-2-ylmethyl)-1-(6-(1,4-dimethyl-1H-pyrazol-5-yl)pyridazin-3-yl)octahydropyrrolo[3,4-b]pyrrole] |
| 55.5% | > 10 µM | 15.1% | > 10 µM | Cc1cnn(C)c1-c1ccc(N2CCC3CN(CC(C)c4ccccc4)CC32)nn1 (stereo not shown) [Compound 11, 1-(6-(1,4-dimethyl-1H-pyrazol-5-yl)pyridazin-3-yl)-5-(2-phenylpropyl)octahydropyrrolo[3,4-b]pyrrole] |
